Peptide text beside a SMILES is read from it.
Columns and labels:
[1] = biological target: T1, 2xSUMO2ΔN11 (di-SUMO2) (Homo sapiens, UniProt P61956); assay: ITC binding to linear di-SUMO2 (2xSUMO2ΔN11); conditions: linear di-SUMO2
T1 construct: Each monomer in these chains is separated by RS replacing the natural GG motif; a C-terminal GG motif and a stop codon; GST (N, cleaved yes); made in house; host or cells: E. coli Rosetta 2(DE3)pLysS
Text: (§1) For expression in Escherichia coli, linear poly-SUMO chains were generated as described previously with slight modifications. After the combined PCR/ligation reaction, the 4×SUMO2-ΔN11 or 4×SUMO1-ΔN15 DNA polymers were separated from smaller polymers by agarose gel electrophoresis and individually extracted (Macherey–Nagel). These were then subjected to a second PCR with primers to create BamHI and XhoI restriction sites, a C-terminal GG motif and a stop codon. The resulting fragments coding for di-, tri- and tetra-SUMO2-ΔN11 or SUMO1-ΔN15 chains were amplified and cloned into pGEX-4T2. […] Each monomer in these chains is separated by RS replacing the natural GG motif. A similar strategy was used to design C-terminally GFP–HA2-tagged linear poly-SUMOs in the copper-inducible Ycplac22 vector for expression in S. cerevisiae. […]
(§2) The mono-SUMOs and linear poly-SUMO1 and poly-SUMO2 proteins as well as all RNF4 constructs were expressed as GST-fusion proteins from E. coli Rosetta™ 2(DE3)pLysS cells (Novagen) cultivated in LB medium with 100 μg/ml ampicillin and 30 μg/ml chloramphenicol after induction with 0.1 mM IPTG at 20°C for 12 h. […]
(§3) Binding of peptides and proteins to SUMOs was investigated by ITC using either a VP-ITC or an ITC200 (GE Healthcare). […] Protein concentrations were determined by measuring the absorption at 280 nm. […]

[2] = biological target: T2, 1xSUMO2ΔN11 (mono-SUMO2) (Homo sapiens, UniProt P61956); assay: ITC binding to mono-SUMO2 (1xSUMO2ΔN11)
T2 construct: a C-terminal GG motif and a stop codon; GST (N, cleaved yes); made in house; host or cells: E. coli Rosetta 2(DE3)pLysS
T2 sequence (P61956 12-93 limits assumed, stated change not applied): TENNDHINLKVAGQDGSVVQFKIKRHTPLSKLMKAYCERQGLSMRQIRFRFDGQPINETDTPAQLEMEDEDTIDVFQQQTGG
Text: as §1, §2, §3

T1 sequence (P61956 with tags, fused parts or gaps): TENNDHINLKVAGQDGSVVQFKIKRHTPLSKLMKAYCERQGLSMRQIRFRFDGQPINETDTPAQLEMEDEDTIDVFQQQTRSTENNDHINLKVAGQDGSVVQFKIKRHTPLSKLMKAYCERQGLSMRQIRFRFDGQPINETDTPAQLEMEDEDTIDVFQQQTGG

Row | SMILES | affinity for di-SUMO2 [1] | affinity for mono-SUMO2 [2]
1 | CC[C@H](C)[C@H](NC(=O)[C@H](CCC(=O)O)NC(=O)[C@H](CC(=O)O)NC(=O)CN)C(=O)N[C@H](C(=O)N[C@@H](CC(=O)O)C(=O)N[C@@H](CC(C)C)C(=O)N[C@H](C(=O)N[C@@H](CS)C(=O)N[C@@H](CCC(=O)O)C(=O)N[C@@H](CO)C(=O)N[C@@H](CC(C)C)C(=O)N[C@@H](CCC(=O)O)C(=O)N1CCC[C@H]1C(=O)N[C@H](C(=O)N[C@H](C(=O)N[C@H](C(=O)N[C@@H](CC(=O)O)C(=O)N[C@@H](CC(C)C)C(=O)N[C@H](C(=O)N[C@@H](Cc1c[nH]cn1)C(=O)N[C@@H](CC(N)=O)C(=O)N[C@@H](CC(=O)O)C(=O)N[C@@H](CO)C(=O)O)[C@@H](C)O)C(C)C)C(C)C)C(C)C)[C@@H](C)O)C(C)C [RNF4-SIM2/3pep] (H-GDEIVDLTCESLEPVVVDLTHNDS-OH; N-terminus and C-terminus assumed) | very similar to the one of the whole RNF4-SIM domain for di-SUMO2 | –
2 | CC[C@H](C)[C@H](NC(=O)[C@@H](NC(=O)[C@H](CCC(=O)O)NC(=O)[C@H](CO)NC(=O)[C@H](CO)NC(=O)[C@H](CO)NC(=O)[C@H](CO)NC(=O)[C@H](CC(=O)O)NC(=O)[C@@H](NC(=O)[C@@H](NC(=O)[C@H](CC(C)C)NC(=O)[C@H](CC(=O)O)NC(=O)[C@@H](NC(=O)[C@@H](NC(=O)[C@H](CCC(=O)O)NC(=O)[C@@H](NC(=O)[C@H](CCCCN)NC(=O)[C@@H](N)CCCCN)C(C)C)C(C)C)[C@@H](C)CC)[C@@H](C)O)[C@@H](C)CC)C(C)C)C(=O)N[C@@H](CC(=O)O)C(=O)N[C@@H](CC(C)C)C(=O)N[C@H](C(=O)N[C@H](C(=O)N[C@@H](CC(=O)O)C(=O)N[C@@H](CO)C(=O)N[C@@H](CO)C(=O)O)[C@@H](C)CC)[C@@H](C)O [2xPIAS1pep, reference compound] (H-KKVEVIDLTIDSSSSEVIDLTIDSS-OH; N-terminus and C-terminus assumed) | exceeded the affinities of the RNF4-SIM2/3 peptide | –
3 | CC[C@H](C)[C@H](NC(=O)[C@@H](NC(=O)[C@H](CCC(=O)O)NC(=O)[C@@H](NC(=O)[C@H](CCCCN)NC(=O)[C@@H](N)CCCCN)C(C)C)C(C)C)C(=O)N[C@@H](CC(=O)O)C(=O)N[C@@H](CC(C)C)C(=O)N[C@H](C(=O)N[C@H](C(=O)N[C@@H](CC(=O)O)C(=O)N[C@@H](CO)C(=O)N[C@@H](CO)C(=O)N[C@@H](CO)C(=O)N[C@@H](CC(=O)O)C(=O)N[C@@H](CCC(=O)O)C(=O)O)[C@@H](C)CC)[C@@H](C)O [PIAS1pep] (H-KKVEVIDLTIDSSSDE-OH; N-terminus and C-terminus assumed) | – | much stronger than the binding of any RNF4-derived tandem SIM peptide
